# Experimental data reported in patent US20080242649A1, “New Combination 665” (priority 2007, published 2008).
# Structures can show the parent of a compound that is named as a salt.
# Legend:
# [1] = target: T1, recombinant human α1D receptor (Homo sapiens, UniProt P25100); test: Adrenergic α1D [3H]-prazosin binding, HEK293 membranes; conditions: inhibition of [3H]-prazosin binding; read-out: α1 bind pIC50 (converted)
# T1 construct: expressed in transfected cells; host or cells: HEK293 cells (membranes)
# T1 sequence (P25100 1-572): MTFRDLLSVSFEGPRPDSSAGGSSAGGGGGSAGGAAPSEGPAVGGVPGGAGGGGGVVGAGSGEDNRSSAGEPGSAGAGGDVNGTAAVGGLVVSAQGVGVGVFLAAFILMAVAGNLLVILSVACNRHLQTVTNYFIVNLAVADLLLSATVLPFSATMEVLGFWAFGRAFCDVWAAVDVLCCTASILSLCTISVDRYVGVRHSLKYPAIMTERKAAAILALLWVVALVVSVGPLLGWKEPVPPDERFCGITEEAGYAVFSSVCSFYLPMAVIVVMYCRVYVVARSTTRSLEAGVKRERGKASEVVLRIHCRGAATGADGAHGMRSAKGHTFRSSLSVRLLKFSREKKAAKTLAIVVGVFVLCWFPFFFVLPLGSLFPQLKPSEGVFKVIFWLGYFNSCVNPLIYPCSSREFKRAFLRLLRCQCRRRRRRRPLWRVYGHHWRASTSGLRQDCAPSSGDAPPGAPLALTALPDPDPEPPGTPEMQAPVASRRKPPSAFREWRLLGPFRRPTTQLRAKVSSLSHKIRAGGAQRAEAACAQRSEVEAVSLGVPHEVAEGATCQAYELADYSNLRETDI
# Description: Membranes were prepared from human embryonic kidney 293 (HEK293) cells expressing recombinant human α1D receptor. These were diluted in Assay Buffer (50 mM HEPES, 1 mM EDTA, 0.1% gelatin, pH 7.4) to provide a final concentration of membranes that gave a clear window between maximum and minimum specific binding.
# Assays were performed in U-bottomed 96-well polypropylene plates. 10 μL [^3H]-prazosin (0.3 nM final concentration) and 10 μL of Compound A (10× final concentration) were added to each test well. For each assay plate 8 replicates were obtained for [^3H]-prazosin binding in the presence of 10 μL vehicle (10% (v/v) DMSO in Assay Buffer; defining maximum binding) or 10 μL BMY7378 (10 μM final concentration; defining non-specific binding (NSB)). Membranes were then added to achieve a final volume of 100 μL. […] Five washes with 250 μL wash buffer (50 mM HEPES, 1 mM EDTA, pH 7.4) were performed at 4° C. to remove unbound radioactivity. […] The plates were sealed (TopSeal A) and filter-bound radioactivity was measured with a scintillation counter (TopCount, Packard BioScience) using a 3-minute counting protocol.
# Total specific binding (B0) was determined by subtracting the mean NSB from the mean maximum binding. […]
# [2] = system: methacholine-induced bronchoconstriction; test: Lung function in anaesthetized guinea-pigs, methacholine challenge; format: in vivo, Dunkin-Hartley guinea pig; conditions: for inhibition of methacholine-induced bronchoconstriction: methacholine 5 μg/kg i.v.; for increase in resistance: methacholine 5 μg/kg, vehicle 1898±211%
# Description: Evaluation of Lung Function in Anaesthetized Guinea-Pigs
# Male Dunkin-Hartley guinea pigs (300-600 g) were weighed and dosed with vehicle (0.05M phosphate, 0.1% Tween 80, 0.6% saline, pH 6) or compound via the intratracheal route under recoverable gaseous anaesthesia (5% halothane in oxygen). Animals were dosed with compound or vehicle two hours prior to the administration of histamine or methacholine.
# Guinea pigs were anaesthetized with pentobarbitone (1 mL/kg of 60 mg/mL solution i.p.) approximately 30 minutes prior to the first bronchoconstrictor administration. The trachea was cannulated and the animal ventilated using a constant volume respiratory pump (Harvard Rodent Ventilator model 683) at a rate of 60 breath/min and a tidal volume of 5 ml/kg. A jugular vein was cannulated for the administration of histamine, methacholine or maintenance anaesthetic (0.1 mL of pentobarbitone solution, 60 mg/mL, as required).
# The animals were transferred to a Flexivent System (SCIREQ, Montreal, Canada) in order to measure airway resistance. The animals were ventilated (quasi-sinusoidal ventilation pattern) at 60 breaths/min at a tidal volume of 5 mL/kg. A positive end expiratory pressure of 2-3 cmH2O was applied. Respiratory resistance was measured using the Flexivent “snapshot” facility (1 second duration, 1 Hz frequency). Once stable baseline resistance value had been obtained the animals were given histamine or methacholine in ascending doses (0.5, 1, 2, 3 and 5 μg/kg, i.v.) at approximately 4-minute intervals via the jugular catheter. After each administration of bronchoconstrictor the peak resistance value was recorded. Guinea pigs were euthanized with approximately 1.0 mL pentobarbitone sodium (Euthatal) intravenously after the completion of the lung function measurements. Percentage bronchoprotection produced by a compound was calculated at each dose of brochoconstrictor as follows:
# Where % change Rveh is the mean of the maximum percentage change in airway resistance in the vehicle treated group. The results reported were measured after 5 μg/kg histamine or methacholine and were expressed as percentage bronchoprotection (mean ±s.e.mean).
# guinea pig trachea = test: Bronchodilator onset in guinea pig isolated tracheal ring contracted with methacholine
# Description: Evaluation of Bronchodilator Activity in the Guinea Pig Isolated Tracheal Ring Preparation
# Guinea pigs (300-500 g) were killed by cervical dislocation and the trachea was isolated. The trachea was cut into segments 2-3 cartilage rings in width and suspended in 10 ml organ baths in modified Krebs' solution (mM; NaCl, 90; NaHCO3, 45; KCl, 5; MgSO4.7H2O, 0.5; Na2HPO4.2H2O, 1; CaCl2, 2.25; glucose, 10; pH 7.4) gassed with 5% CO2, 95% […] at 37° C.). The tracheal rings were attached to an isometric force transducer for the measurement of isometric tension. The tissues were washed and a force of 1 g was applied to each tissue. The rings were contracted with methacholine (1 μM). Once the contraction had reached a plateau, vehicle (0.01% DMSO in distilled H2O), compound A (3 nM), roflumilast (1 μM) or a combination of compound A (3 nM) and roflumilast (1 μM) was added and the tissue left until the response had reached a plateau. Data were collected using the Chart 4 software (ADInstruments, Charlgrove, UK). The time to 90% of the maximum effect of the bronchodilator (onset time) was measured and expressed in min (mean ±s.e.mean).
smiles,measurement,setting,value
"CCN(CC)CCN(CCNCCc1ccc(O)c2[nH]c(=O)sc12)C(=O)CCOCCc1cccc2ccccc12 [Compound A, N-[2-(Diethylamino)ethyl]-N-(2-{[2-(4-hydroxy-2-oxo-2,3-dihydro-1,3-benzothiazol-7-yl)ethyl]amino}ethyl)-3-[2-(1-naphthyl)ethoxy]propanamide dihydrobromide]",IC50,[1],251 nM
same,inhibition of methacholine-induced bronchoconstriction,[2]; compound A 1 μg/kg intratracheal 2 h before,15%
same,increase in resistance,[2]; compound A 1 μg/kg intratracheal,1619±235%
same,inhibition of methacholine-induced bronchoconstriction,[2]; compound A 27 μg/kg intratracheal 2 h before,82%
same,increase in resistance,[2]; compound A 27 μg/kg intratracheal,347±71%
same,onset time (time to 90% of the maximum effect),guinea pig trachea; Compound A 3 nM in the presence of roflumilast 1 μM,5.7 ± 1.0 min
same,onset time (time to 90% of the maximum effect),"guinea pig trachea; compound A 3 nM alone, methacholine 1 μM contraction, mean ±s.e.mean",16 ± 3.0 min
